The Km is the concentration of substrate that gives half-maximal velocity.

One series has as its target T1, OATP1B1*1a (Homo sapiens, UniProt Q9Y6L6).
T1 sequence (Q9Y6L6 1-691): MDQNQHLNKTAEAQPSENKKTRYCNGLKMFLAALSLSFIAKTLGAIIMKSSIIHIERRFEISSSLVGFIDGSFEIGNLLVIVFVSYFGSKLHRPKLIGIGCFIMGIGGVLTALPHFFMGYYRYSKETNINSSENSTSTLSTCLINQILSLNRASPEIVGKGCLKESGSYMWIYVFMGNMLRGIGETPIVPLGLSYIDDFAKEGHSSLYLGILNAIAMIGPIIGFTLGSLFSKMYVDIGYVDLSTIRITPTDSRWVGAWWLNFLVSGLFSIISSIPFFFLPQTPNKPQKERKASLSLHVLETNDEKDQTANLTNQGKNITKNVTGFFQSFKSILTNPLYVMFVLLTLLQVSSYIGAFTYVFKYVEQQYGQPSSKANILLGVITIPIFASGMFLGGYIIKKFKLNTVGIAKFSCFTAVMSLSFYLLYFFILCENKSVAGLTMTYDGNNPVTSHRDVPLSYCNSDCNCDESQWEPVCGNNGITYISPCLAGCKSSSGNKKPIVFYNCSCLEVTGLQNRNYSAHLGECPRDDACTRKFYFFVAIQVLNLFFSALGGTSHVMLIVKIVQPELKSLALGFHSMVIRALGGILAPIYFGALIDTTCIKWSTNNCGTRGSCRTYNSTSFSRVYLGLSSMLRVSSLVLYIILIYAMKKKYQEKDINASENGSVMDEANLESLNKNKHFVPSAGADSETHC
The following applies: read-out: Km, SLC Transporter Cells; substrate 0.25 to 40 μM, incubation 1 min.

The next series addresses T2, OATP1B1*15 (Homo sapiens, UniProt Q9Y6L6, N130D/V174A).
T2 sequence (Q9Y6L6 1-691 N130D/V174A): T1 sequence (Q9Y6L6 1-691) with N130D, V174A
Description: OATP1B1 single nucleotide polymorphism panel uptake assay, OATP1B1*15 HEK-293 cells.

The target in series [1] is T3, Organic Anion-Transporting Polypeptide 1B1 (Homo sapiens, UniProt Q9Y6L6).
T3 construct: host or cells: HEK293 cells, gene delivered by electroporation
T3 sequence (Q9Y6L6 1-691): T1 sequence (Q9Y6L6 1-691)
Description: Suspension assay, centrifugation method, Corning TransportoCells OATP1B1*1a. It is filed as in vitro ADME. The following applies: 5× substrate solution containing 25 μM, 10 minutes at 37° C., 600 k cells/well. The text has this:
In this experiment, a suspension assay for characterizing the activity of a drug transporter protein in cryopreserved, Corning® TransportoCells™ was developed. More specifically, the use of a centrifugation method versus a vacuum manifold for separating unreacted substrate in characterizing the activity of Organic Anion-Transporting Polypeptide 1B1 was investigated. Corning® TransportoCells™ transiently transfected with the gene OATP1B1*1a were obtained from Corning Life Sciences (Cat. No. 354859). In the Corning® TransportoCells™, the gene OATP1B1*1a was delivered into HEK293 cells via electroporation and the HEK293 cells were recovered and cryopreserved 1 hour post-electroporation. In order to obtain suitable expression of the Organic Anion-Transporting Polypeptide 1B1 encoded by OATP1B1*1a, the Corning® TransportoCells™ were thawed, cultured, and harvested.
The cells were cultured in T-175 Vented-Cap Culture Flasks with Poly-D-Lysine (hereinafter, “PDL”; available from Corning Life Sciences, Cat. No. 354539) with plating medium for 48 hours at 37° C. and 8% CO2. The plating medium is detailed in Table 16. After 24 hours, sodium butyrate (obtained from Sigma) was added to the cells to reach final 5 mM. After 48 hours, the cells were rinsed twice with Phosphate-Buffered Saline (hereinafter, “PBS”, obtained from Corning).
The cells were then harvested with 0.05% Trypsin (obtained from Sigma) and washed once with Hank's Balanced Salt Solution (hereinafter, “HBSS”) buffer (with Ca^2+ and Mg^2+, obtained from Corning). Then, the cells were resuspended in HBSS (obtained from Corning) to a final cell density of 3×10^6 cells/ml. Two suspension assay experiments were then performed to characterize the activity of Organic Anion-Transporting Polypeptide 1B1 in the Corning® TransportoCells™.
In a first suspension assay experiment, use of a centrifugation method was investigated to separate excess substrate and cells. Referencing FIG. 20, in the first suspension assay experiment, the resuspended Corning® TransportoCells™ were aliquotted (200 μl per well at a density of 600 k cells/well) into either a Corning® 96 Well Clear Round Bottom TC-Treated Microplate (available from Corning Life Sciences, Cat. No. 3799) or a Corning® 96 Well Clear V-Bottom TC-Treated Microplate (available from Corning Life Sciences, Cat. No. 3894). […] The cells were then incubated for 10 minutes at 37° C. After the incubation time, the reaction was stopped by adding ice cold HBSS buffer (50 μl) to the cells and placing the microplates on ice. Then, the microplates were centrifuged at 3000 g for 1 minute at 4° C. […] The cell lysis was then subjected to the appropriate protein analysis and/or fluorescence analysis to characterize the activity of Organic Anion-Transporting Polypeptide 1B1.

Changes are numbered by the printed parent chain.

For `C[C@]12CC[C@@H]3c4ccc(O)cc4CC[C@H]3[C@@H]1CC[C@@H]2O[C@@H]1O[C@H](C(=O)O)[C@@H](O)[C@H](O)[C@H]1O` [E17βG], the Michaelis-Menten constant (Km) is 6.2 µM at OATP1B1*1a and 12.2 ± 0.6 µM in the series with dog Oatp1b4. Also, the “uptake of substrate (in words)” value in the series on dog Oatp1b4 (HEK-293 cells overexpressing the transporter) is listed as “significant uptake”. For the same molecule, on OATP1B1*15, the “uptake activity / transport compared to OATP1B1*1a cells (in words)” value is listed as “Significantly impaired transport”.
With fluorescein methotrexate [FMTX], in series [1] (Round Bottom), the “Uptake Activity OATP1B1” value worked out at 0.38 pmol/mg/min and the “Uptake Ratio” value is recorded as 10.9. In series [1] (V-Bottom), the “Uptake Activity OATP1B1” value worked out at 1.04 pmol/mg/min and the “Uptake Ratio” value is on record as 102.3. Moreover, at OATP1B1*15, the “uptake activity / transport compared to OATP1B1*1a cells (in words)” value is listed as “Significantly impaired transport”.
